From patent publication US6482423B1, “Antimicrobial wipes which provide improved residual benefit versus gram positive bacteria” (The Procter & Gamble Company, priority 1999, dated 2002)

Tested on: Vibrio fischerio
Test: Microtox Response Test (bioluminescence of Microtox Acute Toxicity Reagent)
Type: cell-based
Details: pure anionic surfactant; index from EC50 Value (ppm) decreasing bioluminescence by 50%, 5 minutes
Excerpt: The biological activity/mildness of a pure surfactant can measured directly via a Microtox Response Test hereinafter described in the Analytical Methods section and can be reported as a Microtox Response Index. By “pure surfactant” it is meant a chemical composition consisting essentially of a single surfactant entity, wherein the entity has essentially one chain length, head group and salt counter ion. From a standpoint of high biological activity, preferred anionic surfactants of the antimicrobial cleansing compositions of the present invention have a Microtox Response Index of less that about 150, more preferably less than about 100 and most preferably less than about 50. […]
For surfactant compositions which are mixtures of surfactants rather than pure surfactants (this includes “commercial grade” surfactants which typically comprise mixtures of entities with different chain lengths and potentially have higher levels of impurities), the Microtox Response Index for any individual surfactant component is not a reliable measurement of biological activity or mildness. In the case of mixtures, the Microtox Index of each individual component can be determined and the weighted average used as the Index for the mixture if all the individual components of the mixture are known. […]

Q: How did the “Microtox Index” value turn out when CCCCCCCCCCCCOS(=O)(=O)O.N [ALS, ammonium lauryl sulfate] was run?
A: 1.0

Q: For ammonium laureth-3 sulfate, which “Microtox Index” value is on record?
A: 120
